From patent US11044909B2, “Composition for destruction of microalgae or sphaerocarpus” (CUREARTH, INC., priority 2015, dated 2021) come the findings set out here.

Holding throughout (assay): Microalgae-destroying effect by IC50 measurement (cell count)
Common to all, as to type: cell-based

The test system of experiment [1] is Cochlodinium Polykrikoides. The conditions noted are these: Margalefidinium polykrikoides, 24 h, 0.1-5 uM, cultured 1 day, read-out: IC50 Cochlodinium Polykrikoides. As for the experimental part:
(§1) The IC50 value was obtained according to Equation 1:
(§2) The algicidal activity of each compound was calculated using Equation 2: Algicidal activity (%)=(1−Tt/Ct)×100 <Equation 2>
(§3) In Equation 2, T (treatment group) and C (control group) represent algae densities in cell counts when each compound was inoculated and was not inoculated, respectively, and t represents the number of days which had passed after the inoculation.
(§4) First, the above-listed microalgae were cultured in a culture flask at a temperature of about 20° C. under light conditions, and a medium used was Guillard's f/2 medium which is commonly used in the art (Guillard R R L and Keller M D. Culturing dinoflagellates. In: Spector (Ed.), Dinoflagellates. New York: Academic Press; 1984, 391442).
(§5) After the cultured microalgae were transferred onto a 24-well plate, Chattonella Marina, Heterosigma circularisquama, Cochlodinium Polykrikoides, and Heterosigma akashiwo, which were in an exponential growth phase, were treated with Compounds 1 to 3, 5 to 10, 12, 13, 17 to 43, and 45 to 47 synthesized in Examples 1 to 3, 5 to 10, 12, 13, 17 to 43, and 45 to 47 at concentrations of 0.1 uM, 0.2 uM, 0.5 uM, 1 uM, 2 uM, and 5 uM, and then cultured for 1 day.
(§6) Control groups were not treated with any of the compounds synthesized in the above-identified examples. After incubation, the number of cells of each alga was counted using a Burker-Tukr hemocytometer, and IC50 values were calculated according to Equation 1 using SigmaPlot Version 11.2 software (Standard curve: the four-parameter logistic curve).

In a further experiment the test system is Microcystis aeruginosa. The conditions noted are these: read-out: IC50 Microcystis aeruginosa. As for the experimental part: as §1, §2, §3, §4
Microcystis aeruginosa was treated with Compounds 1 to 3, 5 to 10, 12, 13, 17 to 43, and 45 to 51 synthesized in Examples 1 to 3, 5 to 10, 12, 13, 17 to 43, and 45 to 51 at concentrations of 0.1 uM, 0.2 uM, 0.5 uM, 1 uM, 2 uM, 5 uM, 10 uM, 15 uM, and 20 uM and then cultured for 5 days.
as §6

A further experiment relates to Heterosigma Akashiwo. The note with it: 24 h, cultured 1 day, read-out: IC50 Heterosigma Akashiwo. As for the experimental part: (§7) The IC50 value was obtained according to Equation 1: […]
as §4, §5, §6

Experiment [2] deals with Heterocapsa Circularisquama. The conditions noted are these: 24 h, cultured 1 day. As for the experimental part: as §7, §4, §5, §6
A further experiment has as its system Chattonella Marina. The conditions noted are these: 24 h, cultured 1 day, read-out: IC50 Chattonella Marina. Here is the method: as §7, §4, §5, §6
Where [3] appears, read: Table 1, 3,4-dichlorobenzylamines.
The mark [4] stands for this setting: Microcystis aeruginosa, 120 h, Table 1, 3,4-dichlorobenzylamines, 0.1-20 uM, cultured 5 days.
Where [5] appears, read: Table 1, 3,4-dichlorobenzylamines, 0.1-5 uM.
The mark [6] stands for this setting: Table 1, 3,4-dichlorobenzylamines, 0.1-5 uM, read-out: IC50 Heterocapsa Circularisquama.
Setting [7] is: Table 2, 0.1-5 uM, read-out: IC50 Heterocapsa Circulariaquama.

pIC50: −log10 of the molar value. Where two headings read alike, the source gives them in different places.

One may read the pIC50 as −log10 of the IC50, conventionally taken in molar units. For the molecule `CCN(CC)CCNCc1ccc(Cl)c(Cl)c1` [Compound 1, N′-(3,4-dichloro-benzyl)-N,N-diethyl-ethane-1,2-diamine], the pIC50 in experiment [1] (setting [3]) is 5.64; in the experiment on Microcystis aeruginosa (setting [4]), 5.31; in the experiment on Heterosigma Akashiwo (setting [5]) it was 5.80; in experiment [2] (setting [6]), 5.75; in the experiment with Chattonella Marina (setting [5]) it was 5.54.

As to `CN(C)CCNCc1ccc(Cl)c(Cl)c1` [Compound 3, N′-(3,4-Dichloro-benzyl)-N,N-dimethyl-ethane-1,2-diamine], the pIC50 in experiment [1] (setting [3]) is less than 5.30; with Microcystis aeruginosa (setting [4]), 5.08; with Heterosigma Akashiwo (setting [5]), 5.65; in experiment [2] (setting [6]), 5.51; with Chattonella Marina (setting [5]) it was less than 5.30.

As for `COCCNCc1ccc(Cl)c(Cl)c1` [Compound 5, (3,4-dichloro-benzyl)-(2-methoxy-ethyl)-amine], the pIC50 in experiment [1] (setting [3]) was less than 5.30; in the experiment on Microcystis aeruginosa (setting [4]) it was 4.85; with Heterosigma Akashiwo (setting [5]) it was 5.89; in experiment [2] (setting [6]), less than 5.30; with Chattonella Marina (setting [5]) it was less than 5.30.

With `COC(CCCNCc1ccc(Cl)c(Cl)c1)OC` [Compound 6, (3,4-Dichloro-benzyl)-(4,4-dimethoxy-butyl)-amine], the pIC50 was 5.35 in experiment [1] (setting [3]); 5.06 in the experiment on Microcystis aeruginosa (setting [4]); 5.89 in the experiment on Heterosigma Akashiwo (setting [5]); 5.32 in experiment [2] (setting [6]); less than 5.30 with Chattonella Marina (setting [5]).

Turning to `CC(C)CCNCc1ccc(Cl)c(Cl)c1` [Compound 7, (3,4-Dichloro-benzyl)-(3-methyl-butyl)-amine], the pIC50 in experiment [1] (setting [3]) is 5.82; in the experiment with Microcystis aeruginosa (setting [4]), 4.94; in the experiment with Heterosigma Akashiwo (setting [5]), 6.55; in experiment [2] (setting [6]), 5.82; with Chattonella Marina (setting [5]) it was 5.70.

Regarding `CN(C)CCCNCc1ccc(Cl)c(Cl)c1` [Compound 8, N′-(3,4-Dichloro-benzyl)-N,N-dimethyl-propane-1,3-diamine], the pIC50 in experiment [1] (setting [3]) was 6.54; in the experiment on Microcystis aeruginosa (setting [4]), 7.05; in the experiment on Heterosigma Akashiwo (setting [5]) it was 5.90; in experiment [2] (setting [6]), 5.48; in the experiment with Chattonella Marina (setting [5]), 6.09.

As for `CCN(CC)CCNC(=O)c1ccc(Cl)c(Cl)c1` [Compound 9, 3,4-Dichloro-N-(2-diethylamino-ethyl)-benzamide], the pIC50 was 5.34 in experiment [1] (Table 2); 6.01 in the experiment with Microcystis aeruginosa (Microcystis aeruginosa, 120 h); 5.73 in the experiment on Heterosigma Akashiwo (Table 2, 0.1-5 uM); 5.71 in experiment [2] (setting [7]); less than 5.30 with Chattonella Marina (Table 2, 0.1-5 uM).

As for `CN(C)CCNC(=O)c1ccc(Cl)c(Cl)c1` [Compound 10, 3,4-Dichloro-N-(2-dimethylamino-ethyl)-benzamide], the pIC50 was less than 5.30 in experiment [1] (Table 2); less than 5.30 in the experiment on Microcystis aeruginosa (Microcystis aeruginosa, 120 h); 5.79 in the experiment on Heterosigma Akashiwo (Table 2, 0.1-5 uM); less than 5.30 in experiment [2] (setting [7]); less than 5.30 with Chattonella Marina (Table 2, 0.1-5 uM).

On to `CN(C)CCCNC(=O)c1ccc(Cl)c(Cl)c1` [Compound 12, 3,4-Dichloro-N-(3-dimethylamino-propyl)-benzamide], for which the pIC50 is less than 5.30 in experiment [1] (Table 2); less than 5.30 in the experiment on Microcystis aeruginosa (Microcystis aeruginosa, 120 h); 5.81 with Heterosigma Akashiwo (Table 2, 0.1-5 uM); less than 5.30 in experiment [2] (setting [7]); less than 5.30 in the experiment with Chattonella Marina (Table 2, 0.1-5 uM).

Take `CCN(CC)CCCNC(=O)c1ccc(Cl)c(Cl)c1` [Compound 13, 3,4-Dichloro-N-(3-diethylamino-propyl)-benzamide]: the pIC50 in experiment [1] (Table 2) was 5.65; with Microcystis aeruginosa (Microcystis aeruginosa, 120 h), less than 5.30; with Heterosigma Akashiwo (Table 2, 0.1-5 uM), 5.64; in experiment [2] (setting [7]), 5.30; in the experiment with Chattonella Marina (Table 2, 0.1-5 uM), 5.35.

Regarding `CCNCc1ccc(Cl)c(Cl)c1` [Compound 17, (3,4-Dichloro-benzyl)-ethyl-amine], the negative logarithm of the IC50 (pIC50) in experiment [1] (setting [3]) was less than 5.30; in the experiment with Microcystis aeruginosa (setting [4]), less than 4.70; in the experiment with Heterosigma Akashiwo (setting [5]), 5.93; in experiment [2] (setting [6]), less than 5.30; in the experiment with Chattonella Marina (setting [5]), less than 5.30.

With `CCCNCc1ccc(Cl)c(Cl)c1` [Compound 18, (3,4-Dichloro-benzyl)-propyl-amine], the pIC50 in experiment [1] (setting [3]) was 5.36; with Microcystis aeruginosa (setting [4]), 4.93; in the experiment with Heterosigma Akashiwo (setting [5]), 6.14; in experiment [2] (setting [6]), less than 5.30; in the experiment with Chattonella Marina (setting [5]), 5.57.

Consider `Clc1ccc(CNc2ccccc2)cc1Cl` [Compound 19, (3,4-Dichloro-benzyl)-phenyl-amine], for which the pIC50 in experiment [1] (setting [3]) is 5.38; in the experiment on Microcystis aeruginosa (setting [4]) it was 4.86; in the experiment on Heterosigma Akashiwo (setting [5]), 5.90; in experiment [2] (setting [6]) it was less than 5.30; in the experiment on Chattonella Marina (setting [5]) it was 5.46.

For `CCCCNCc1ccc(Cl)c(Cl)c1` [Compound 20, Butyl-(3,4-dichloro-benzyl)-amine], the pIC50 in experiment [1] (setting [3]) was 5.45; with Microcystis aeruginosa (setting [4]), less than 4.70; in the experiment on Heterosigma Akashiwo (setting [5]), 6.36; in experiment [2] (setting [6]) it was 5.54; in the experiment on Chattonella Marina (setting [5]) it was 5.50.

In the case of `Clc1ccc(NCc2ccc(Cl)c(Cl)c2)cc1` [Compound 21, (4-Chloro-phenyl)-(3,4-dichloro-benzyl)-amine], the pIC50 in experiment [1] (setting [3]) was 5.44; with Microcystis aeruginosa (setting [4]), 5.02; in the experiment on Heterosigma Akashiwo (setting [5]), 5.89; in experiment [2] (setting [6]) it was 5.48; in the experiment with Chattonella Marina (setting [5]), less than 5.30.

`O=C(/C=C/c1ccc(Cl)c(Cl)c1)c1ccccc1` [Compound 22, 3-(3,4-Dichloro-phenyl)-1-phenyl-propenone]: the pIC50 in experiment [1] (Table 2) was 5.78; in the experiment with Microcystis aeruginosa (Microcystis aeruginosa, 120 h) it was less than 5.30; in the experiment with Heterosigma Akashiwo (Table 2, 0.1-5 uM), 5.44; in experiment [2] (setting [7]), less than 5.30; in the experiment on Chattonella Marina (Table 2, 0.1-5 uM) it was less than 5.30.

In the case of `Fc1ccc(NCc2ccc(Cl)c(Cl)c2)cc1` [Compound 23, (3,4-Dichloro-benzyl)-(4-fluoro-phenyl)-amine], the negative-log IC50 (pIC50) in experiment [1] (setting [3]) is less than 5.30; in the experiment on Microcystis aeruginosa (setting [4]), 4.96; in the experiment on Heterosigma Akashiwo (setting [5]), 5.81; in experiment [2] (setting [6]), less than 5.30; in the experiment on Chattonella Marina (setting [5]), less than 5.30.

As for `O=C(/C=C/c1ccc(Cl)c(Cl)c1)c1ccc(Cl)cc1` [Compound 24, 1-(4-Chloro-phenyl)-3-(3,4-dichloro-phenyl)-propenone], the pIC50 is 5.88 in experiment [1] (Table 2); less than 5.30 with Microcystis aeruginosa (Microcystis aeruginosa, 120 h); 5.77 in the experiment on Heterosigma Akashiwo (Table 2, 0.1-5 uM); less than 5.30 in experiment [2] (setting [7]); less than 5.30 in the experiment with Chattonella Marina (Table 2, 0.1-5 uM).

Turning to `Clc1ccc(CNc2ccc(Br)cc2)cc1Cl` [Compound 25, (4-Bromo-phenyl)-(3,4-dichloro-benzyl)-amine], the pIC50 in experiment [1] (setting [3]) was 5.40; with Microcystis aeruginosa (setting [4]), 4.95; in the experiment with Heterosigma Akashiwo (setting [5]), 5.92; in experiment [2] (setting [6]), 5.55; with Chattonella Marina (setting [5]) it was less than 5.30.

Regarding `Clc1ccc(CNCc2ccccn2)cc1Cl` [Compound 26, (3,4-Dichloro-benzyl)-pyridin-2-ylmethyl-amine], the pIC50 in experiment [1] (setting [3]) is less than 5.30; in the experiment on Microcystis aeruginosa (setting [4]) it was less than 4.70; in the experiment on Heterosigma Akashiwo (setting [5]), 6.14; in experiment [2] (setting [6]), less than 5.30; in the experiment on Chattonella Marina (setting [5]) it was 5.47.

Consider `Clc1ccc(CNCc2cccnc2)cc1Cl` [Compound 27, (3,4-Dichloro-benzyl)-pyridin-3-ylmethyl-amine], for which the pIC50 in experiment [1] (setting [3]) is 5.70; in the experiment with Microcystis aeruginosa (setting [4]) it was less than 4.70; with Heterosigma Akashiwo (setting [5]), 6.10; in experiment [2] (setting [6]), 5.45; in the experiment with Chattonella Marina (setting [5]), less than 5.30.

Consider `Clc1ccc(CNCc2ccncc2)cc1Cl` [Compound 28, (3,4-Dichloro-benzyl)-pyridin-4-ylmethyl-amine], for which the negative-log IC50 (pIC50) was less than 5.30 in experiment [1] (setting [3]); 4.82 in the experiment with Microcystis aeruginosa (setting [4]); 5.64 in the experiment on Heterosigma Akashiwo (setting [5]); less than 5.30 in experiment [2] (setting [6]); less than 5.30 in the experiment with Chattonella Marina (setting [5]).

`CCN(CC)CCCNCc1ccc(Cl)c(Cl)c1` [Compound 48, N′-(3,4-Dichloro-benzyl)-N, N-diethyl-propane-1,3-diamine.2HCl]: the negative-log IC50 (pIC50) in the experiment on Microcystis aeruginosa (Table 1, 3,4-dichlorobenzylamines, 0.1-20 uM, cultured 5 days) was 6.11.

On to `CCCCN(CCCC)CCNCc1ccc(Cl)c(Cl)c1` [Compound 49, N,N-Dibutyl-N′-(3,4-dichlorobenzyl)ethane-1,2-diamine], for which the pIC50 in the experiment with Microcystis aeruginosa (setting [4]) is 6.06.

As for `CCCCN(CCCC)CCCNCc1ccc(Cl)c(Cl)c1` [Compound 50, N,N-Dibutyl-N′-(3,4-dichlorobenzyl)propane-1,3-diamine], the pIC50 in the experiment with Microcystis aeruginosa (setting [4]) is 6.27.

`OCCN(CCO)CCCNCc1ccc(Cl)c(Cl)c1` [Compound 51, 2-[[3-(3,4-Dichlorobenzylamino)propyl]-(2-hydroxyethyl)amino]ethanol]: in the experiment with Microcystis aeruginosa (setting [4]), the pIC50 was 5.64.
